Assay results as given in patent US4351337A, “Biodegradable, implantable drug delivery device, and process for preparing and using the same” (Arthur D. Little, Inc., priority 1980, dated 1982).
“Also recorded” adds a separate entry of the source.

Experiments:
[1] = Naltrexone saturation in Earle's solution; format: physicochemical; conditions: Earle's Balanced Salt Solution, 37° C.; read-out: saturation concentration
Description: The resulting implants were evaluated by both in vitro and in vivo techniques. In making the in vitro evaluations the films were measured for weight, thickness, and surface area, and were then rinsed briefly with Earle's Balanced Salt Solution (IX--without phenol red, Grand Island Biological Company). Individual films were placed in stoppered test tubes containing 10 ml of the Earle's solution. The tubes were placed in a shaker water bath at 37° C. and were gently agitated. Drug concentration of the solution was periodically assayed by scintillation counting techniques to permit an evaluation of the in vitro drug-release behavior of the copolymers. (The solutions were replaced sufficiently frequently that the naltrexone concentration remained far below saturation, i.e., below ~460 mg/100 ml).

[2] = Tritium excretion in urine of rats given labelled prednisolone; format: in vivo, rat (female CD); conditions: for Tritium in urine of rats: group 3, control, s.c. injection 1.0 mg/rat
Description: These implants contained from 0.65 to 2.0 mg of radioactively-labelled prednisolone, depending on the size of the implant rectangle. The implants were sterilized by immersion in alcohol and then rinsed with sterile Earle's Balanced Salt Solution. The devices were implanted subcutaneously into the backs of two groups each of eight female CD rats (Charles River Breeding Laboratories, Inc.). To accomplish the implantations, the dorsal area was shaved, cleaned with alcohol and then a one-half inch incision was made in the skin. The skin was then separated from the muscle tissue and the implant inserted at this site. The incision was then sutured.
Each animal of a third group of four female CD rats from the same source was subcutaneously injected with 0.5 cc of an 0.5% hydroxy propylcellulose solution containing an amount of the same radioactiviely labelled prednisolone approximately equivalent to that contained in the implant devices (i.e., 1 mg prednisolone/rat).
All of the animals were housed in metabolic cages. The radioactivities in the urines collected were measured by the standard procedure of scintillation counting, and from these measurements values of disintegrations per minute (DPM) were calculated. Radioactivities were thus measured every 24 hours for the first four days and then for an additional 72 hour level to complete a week of testing.
The average DPM values obtained for the two groups of implanted rats (average dosage of 1.5 mg/rat) and the one group of control rats (average dosage of 1.0 mg/rat) are given in Table 1. During the first day a number of rats escaped from their cages so that the average figures given are for fewer than the total number of animals in each group.

Structure (SMILES)	solubility [1] [µg/mL]	Tritium in urine of rats ([2]; 0-24 h)	Tritium in urine of rats ([2]; 24-48 h)	Tritium in urine of rats ([2]; 48-72 h)	Tritium in urine of rats ([2]; 72-96 h) [DPM]	Tritium in urine of rats ([2]; 96-168 h, minus values indicate noise) [DPM]	excretion / drug release in words ([2]; implants to one week, control first 24 h and end of fourth day)
O=C1CC[C@@]2(O)[C@H]3Cc4ccc(O)c5c4[C@@]2(CCN3CC2CC2)[C@H]1O5 [naltrexone]	~4600						
C[C@]12C=CC(=O)C=C1CC[C@@H]1[C@@H]2[C@@H](O)C[C@@]2(C)[C@H]1CC[C@]2(O)C(=O)CO [prednisolone]		33,038 DPM	4,424 DPM	3,335 DPM	86	-248	very high excretion rates in the first 24 hours; also recorded: practically no excretion of radioactive material
